# Measured values reported in ChEMBL document CHEMBL4028817, “Indole-TEMPO conjugates alleviate ischemia-reperfusion injury via attenuation of oxidative stress and preservation of mitochondrial function” (Bioorg Med Chem, 2017).
# The source made the active and inactive calls. No cut-off for these calls is given here.
# Legend:
# Mus musculus [1] = assay: Toxicity in mouse assessed as tail bleeding time at 0.50 mmol/kg, po administered 45 mins prior to tail transection measured every 30 secs (reference value: 119.8 +/- 8.4 sec); type: organism-based; conditions: in vivo
# Mus musculus [2] = assay: Anti-inflammatory activity in ICR mouse assessed as inhibition of xylene induced ear edema at 0.10 mmol/kg pretreated orally for 30 mins followed by xylene challenge measured after 2 hrs relative to control; type: functional; conditions: po
# Mus musculus [3] = assay: Toxicity in mouse assessed as tail bleeding time at 0.50 mmol/kg, po administered 90 mins prior to tail transection measured every 30 secs (reference value: 119.3 +/- 7.7 sec); type: organism-based; conditions: in vivo
# Mus musculus [4] = assay: Anti-inflammatory activity in xylene induced ICR mouse ear edema model assessed as edema weight at 0.10 mmol/kg, po pretreated 30 mins followed by xylene challenge measured after 2 hrs (reference value: 4.07 +/- 0.51 mg); type: functional
# Mus musculus [5] = assay: Toxicity in mouse assessed as tail bleeding time at 0.50 mmol/kg, po administered 30 mins prior to tail transection measured every 30 secs (reference value: 120.5 +/- 7.9 sec); type: organism-based; conditions: in vivo
# Mus musculus [6] = assay: Toxicity in mouse assessed as tail bleeding time at 0.50 mmol/kg, po administered 60 mins prior to tail transection measured every 30 secs (reference value: 120.4 +/- 7.9 sec); type: organism-based; conditions: in vivo
# Rattus norvegicus [7] = assay: Protection against ischemia/reperfusion-induced Wistar rat intestinal injury model assessed as reduction in lipid peroxidation by measuring lipid peroxide levels at 30 mg/kg administered as bolus dose pretreated for 5 mins followed by 12 hrs reperfusion and subsequent compound addition at 10 mg/kg administered at 1 hr interval during reperfusion period measured at 1.5 to 12 hrs post reperfusion by spectrophotometric method; type: functional, organism-based
# Rattus norvegicus [8] = assay: (§1) Protection against ischemia/reperfusion-induced Wistar rat intestinal injury model assessed as well-preserved glandular architecture at 30 mg/kg administered as bolus dose pretreated for 5 mins followed by 12 hrs reperfusion and subsequent compound addition at 10 mg/kg administered at 1 hr interval during reperfusion period by hematoxylin-eosin/trichrome/NADH-diaphorase staining based histopathological analysis; type: functional, organism-based
# Mus musculus [9] = assay: Anti-inflammatory activity in ICR mouse assessed as inhibition of xylene induced ear edema at 0.02 mmol/kg, po pretreated for 30 mins followed by xylene challenge measured after 2 hrs; type: functional, organism-based
# HUVEC [10] = assay: Protection against simulated ischemia and reperfusion injury induced mitochondrial oxidative damage in HUVEC assessed as reduction in cytochrome c release at 30 ug/ml treated for 12 hrs under normoxic condition prior to simulated ischemia for 2 hrs followed by compound washout measured 3 hrs post reperfusion by MitoProbe based immuno-fluorescence assay (reference value: 71.2 +/- 4.5%); type: functional, Homo sapiens; design: scale not given: the % may be the effect or the level left
# Rattus norvegicus [11] = assay: Protection against ischemia/reperfusion-induced Wistar rat intestinal injury model assessed as effect on TNFalpha levels at 30 mg/kg administered as bolus dose pretreated for 5 mins followed by 12 hrs reperfusion and subsequent compound addition at 10 mg/kg administered at 1 hr interval during reperfusion period by ELISA (reference value: 62.9 +/- 8.7 pg/ml); type: functional
# Rattus norvegicus [12] = assay: as §1, with “ischemia/reperfusion induced” for “ischemia/reperfusion-induced”, “reduction in denudation of villous tips” for “well-preserved glandular architecture”, “treatment” for “addition”; type: functional, organism-based
# HUVEC [13] = assay: Protection against simulated ischemia/reperfusion injury-induced cell death in HUVEC assessed as increase in cell viability at 30 ug/ml treated for 12 hrs under normoxic condition prior to simulated ischemia for 2 hrs followed by compound washout measured 3 hrs post reperfusion; type: functional, cell-based; conditions: Homo sapiens
# HUVEC [14] = assay: Protection against simulated ischemia/reperfusion injury induced mitochondrial oxidative damage in HUVEC assessed as decrease in mitochondrial reactive oxygen species level at 30 ug/ml pretreated for 12 hrs followed by compound washout and subsequent ischemia simulation for 2 hrs in presence of compound prior to 3 hrs reperfusion under drug free medium by MitoProbe based confocal microscopic analysis; type: functional, cell-based; conditions: Homo sapiens
# Mus musculus [15] = assay: Anti-inflammatory activity in ICR mouse assessed as inhibition of xylene induced ear edema pretreated orally for 30 mins followed by xylene challenge measured after 2 hrs; type: functional
# HUVEC [16] = assay: Protection against simulated ischemia/reperfusion injury induced mitochondrial oxidative damage in HUVEC assessed as increase in tubular mitochondrial cells at 30 ug/ml pretreated for 12 hrs followed by compound washout and subsequent ischemia simulation for 2 hrs in presence of compound prior to 3 hrs reperfusion under drug free medium by MitoProbe based confocal microscopic analysis; type: functional, cell-based; conditions: Homo sapiens
SMILES,Time (Mus musculus [1]),inhibition in vivo at 100 µmol/kg (Mus musculus [2]),Time (Mus musculus [3]),Activity (Mus musculus [4]),Time (Mus musculus [5]),Time (Mus musculus [6]),Activity (Rattus norvegicus [7]),Activity (Rattus norvegicus [8]),inhibition (Mus musculus [9]),Activity (HUVEC [10]),Activity (Rattus norvegicus [11]),Activity (Rattus norvegicus [12]),Activity (HUVEC [13]),Activity (HUVEC [14]),inhibition (Mus musculus [15]),Activity (HUVEC [16])
CC1(C)CC(n2cc(CNC(=O)[C@@H](Cc3c[nH]c4ccccc34)NC(=O)[C@@H]3Cc4c([nH]c5ccccc45)CN3C(=O)[C@@H]3Cc4c([nH]c5ccccc45)CN3)nn2)CC(C)(C)N1[O],120.3 s,50.4%,117.3 s,2.02 mg,119.4 s,121.8 s,–,–,–,–,–,–,–,–,–,–
CC1(C)CC(n2cc(CNC(=O)C[C@@H](NC(=O)[C@@H]3Cc4c([nH]c5ccccc45)CN3C(=O)[C@@H]3Cc4c([nH]c5ccccc45)CN3)C(=O)NCc3cn(C4CC(C)(C)N([O])C(C)(C)C4)nn3)nn2)CC(C)(C)N1[O],118.2 s,76.7%,120.5 s,0.95 mg,116.3 s,119.3 s,Active,Active,Active,29.8%,21.7 pg/mL,Active,Active,Active,Dose-dependent effect,Active
CC(C)C[C@@H](NC(=O)[C@@H]1Cc2c([nH]c3ccccc23)CN1C(=O)[C@@H]1Cc2c([nH]c3ccccc23)CN1)C(=O)NCc1cn(C2CC(C)(C)N([O])C(C)(C)C2)nn1,120.7 s,47%,119.1 s,2.16 mg,121 s,119.8 s,–,–,–,–,–,–,–,–,–,–
CC1(C)CC(n2cc(CNC(=O)[C@@H](Cc3c[nH]cn3)NC(=O)[C@@H]3Cc4c([nH]c5ccccc45)CN3C(=O)[C@@H]3Cc4c([nH]c5ccccc45)CN3)nn2)CC(C)(C)N1[O],120.5 s,48.6%,118 s,2.09 mg,119 s,119.5 s,–,–,–,–,–,–,–,–,–,–
CC1(C)CC(O)CC(C)(C)N1[O] [TEMPOL],–,–,–,–,–,–,Active,–,–,–,25.2 pg/mL,–,–,–,–,–
CSCC[C@@H](NC(=O)[C@@H]1Cc2c([nH]c3ccccc23)CN1C(=O)[C@@H]1Cc2c([nH]c3ccccc23)CN1)C(=O)NCc1cn(C2CC(C)(C)N([O])C(C)(C)C2)nn1,118.4 s,43.5%,117.9 s,2.3 mg,119.3 s,119.6 s,–,–,–,–,–,–,–,–,–,–
CC1(C)CC(n2cc(CNC(=O)[C@@H](CCCCN)NC(=O)[C@@H]3Cc4c([nH]c5ccccc45)CN3C(=O)[C@@H]3Cc4c([nH]c5ccccc45)CN3)nn2)CC(C)(C)N1[O],119.8 s,57%,118.5 s,1.75 mg,121.4 s,120.5 s,–,–,–,–,–,–,Active,–,Dose-dependent effect,–
CC1(C)CC(n2cc(CNC(=O)[C@@H](CCCNC(=N)N([N+](=O)[O-])[N+](=O)[O-])NC(=O)[C@@H]3Cc4c([nH]c5ccccc45)CN3C(=O)[C@@H]3Cc4c([nH]c5ccccc45)CN3)nn2)CC(C)(C)N1[O],120.2 s,63.1%,119.7 s,1.5 mg,121.8 s,119.8 s,–,–,–,–,–,–,Active,–,Dose-dependent effect,–
CC(C)[C@@H](NC(=O)[C@@H]1Cc2c([nH]c3ccccc23)CN1C(=O)[C@@H]1Cc2c([nH]c3ccccc23)CN1)C(=O)NCc1cn(C2CC(C)(C)N([O])C(C)(C)C2)nn1,119.3 s,36.6%,118.7 s,2.58 mg,116.4 s,120.4 s,–,–,–,–,–,–,–,–,–,–
CC[C@@H](C)[C@@H](NC(=O)[C@@H]1Cc2c([nH]c3ccccc23)CN1C(=O)[C@@H]1Cc2c([nH]c3ccccc23)CN1)C(=O)NCc1cn(C2CC(C)(C)N([O])C(C)(C)C2)nn1,117.5 s,44.7%,121.7 s,2.25 mg,119.7 s,116.1 s,–,–,–,–,–,–,–,–,–,–
C[C@@H](O)[C@@H](NC(=O)[C@@H]1Cc2c([nH]c3ccccc23)CN1C(=O)[C@@H]1Cc2c([nH]c3ccccc23)CN1)C(=O)NCc1cn(C2CC(C)(C)N([O])C(C)(C)C2)nn1,117.3 s,47.2%,117.4 s,2.15 mg,116.9 s,118.5 s,–,–,–,–,–,–,–,–,–,–
CC1(C)CC(n2cc(CNC(=O)[C@@H](CCC(N)=O)NC(=O)[C@@H]3Cc4c([nH]c5ccccc45)CN3C(=O)[C@@H]3Cc4c([nH]c5ccccc45)CN3)nn2)CC(C)(C)N1[O],119.6 s,47.7%,119.3 s,2.13 mg,117.4 s,120.6 s,–,–,–,–,–,–,–,–,–,–
CC1(C)CC(n2cc(CNC(=O)CNC(=O)[C@@H]3Cc4c([nH]c5ccccc45)CN3C(=O)[C@@H]3Cc4c([nH]c5ccccc45)CN3)nn2)CC(C)(C)N1[O],114.5 s,34.7%,115.8 s,2.65 mg,117.7 s,116.4 s,–,–,–,–,–,–,–,–,–,–
CC1(C)CC(n2cc(CNC(=O)[C@@H](CC(N)=O)NC(=O)[C@@H]3Cc4c([nH]c5ccccc45)CN3C(=O)[C@@H]3Cc4c([nH]c5ccccc45)CN3)nn2)CC(C)(C)N1[O],118.4 s,56.3%,119.2 s,1.78 mg,119.7 s,119.5 s,–,–,–,–,–,–,Active,–,Dose-dependent effect,–
CC1(C)CC(n2cc(CNC(=O)[C@@H](CO)NC(=O)[C@@H]3Cc4c([nH]c5ccccc45)CN3C(=O)[C@@H]3Cc4c([nH]c5ccccc45)CN3)nn2)CC(C)(C)N1[O],119.7 s,40.5%,118.6 s,2.42 mg,121.1 s,122.5 s,–,–,–,–,–,–,–,–,–,–
CC1(C)CC(n2cc(CNC(=O)[C@@H](Cc3ccc(O)cc3)NC(=O)[C@@H]3Cc4c([nH]c5ccccc45)CN3C(=O)[C@@H]3Cc4c([nH]c5ccccc45)CN3)nn2)CC(C)(C)N1[O],118 s,60%,118.6 s,1.63 mg,117.2 s,117.5 s,–,–,–,–,–,–,Active,–,Dose-dependent effect,–
CC1(C)CC(n2cc(CNC(=O)[C@H]3CCCN3C(=O)[C@@H]3Cc4c([nH]c5ccccc45)CN3C(=O)[C@@H]3Cc4c([nH]c5ccccc45)CN3)nn2)CC(C)(C)N1[O],119.5 s,43.2%,119.7 s,2.31 mg,119.9 s,121.4 s,–,–,–,–,–,–,–,–,–,–
C[C@@H](NC(=O)[C@@H]1Cc2c([nH]c3ccccc23)CN1C(=O)[C@@H]1Cc2c([nH]c3ccccc23)CN1)C(=O)NCc1cn(C2CC(C)(C)N([O])C(C)(C)C2)nn1,115.3 s,32.9%,119.8 s,2.73 mg,119.6 s,117.7 s,–,–,–,–,–,–,–,–,–,–
CC1(C)CC(n2cc(CNC(=O)[C@@H](Cc3ccccc3)NC(=O)[C@@H]3Cc4c([nH]c5ccccc45)CN3C(=O)[C@@H]3Cc4c([nH]c5ccccc45)CN3)nn2)CC(C)(C)N1[O],119.1 s,45.9%,119 s,2.2 mg,119.4 s,117.6 s,–,–,–,–,–,–,–,–,–,–
